Experimental findings from patent US7585873B2, “1-(aminoalkyl)-3-sulfonylazaindoles as 5-hydroxytryptamine-6 ligands” (Wyeth, priority 2002, dated 2009) are described below.

Where a name gives a salt, the structure may show the parent alone.

T1 sequence (P50406 whole entry): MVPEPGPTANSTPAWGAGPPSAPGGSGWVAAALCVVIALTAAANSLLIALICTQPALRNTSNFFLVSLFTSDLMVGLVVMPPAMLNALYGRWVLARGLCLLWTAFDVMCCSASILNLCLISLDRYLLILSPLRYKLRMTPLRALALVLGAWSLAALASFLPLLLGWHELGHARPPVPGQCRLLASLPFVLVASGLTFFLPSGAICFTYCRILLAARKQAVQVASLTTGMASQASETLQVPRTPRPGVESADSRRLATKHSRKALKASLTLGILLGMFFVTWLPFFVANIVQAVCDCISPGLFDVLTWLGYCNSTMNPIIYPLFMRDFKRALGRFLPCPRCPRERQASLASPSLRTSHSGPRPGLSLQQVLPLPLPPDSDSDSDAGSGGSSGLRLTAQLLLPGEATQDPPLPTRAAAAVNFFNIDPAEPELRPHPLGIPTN

One series addresses T1, human cloned 5-HT6 receptors (Homo sapiens, UniProt P50406).
T1 construct: expressed in transfected cells; host or cells: Hela cells
The series can be described thus: 5-HT6 binding affinity, [3H]-LSD displacement on membranes of Hela cells expressing human cloned 5-HT6 receptors.
Settings: not given
For orientation: Ki means the equilibrium dissociation constant of an inhibitor or competing ligand from its target. On to `NCCn1cc(S(=O)(=O)c2cccc(Cl)c2)c2cccnc21` [Example 12, 2-{3-[(3-Chlorophenyl)sulfonyl]-1H-pyrrolo[2,3-b]pyridin-1-yl}ethylamine dihydrochloride], for which the Ki was determined as 20 nM.

Staying with this series, now noted: [3H]-LSD 3.0 nM, Hela cell membranes, 120 min at room temperature; read-out: 5-HT6 Binding Ki.
Consider `CN(C)CCn1cc(S(=O)(=O)c2cccc(F)c2)c2ncccc21` [Example 77, N,N-Dimethyl-N-(2-{3-[(3-fluorophenyl)sulfonyl]-1H-pyrrolo[3,2-b]pyridin-1-yl}ethyl)amine Dihydrochloride], for which the Ki was 200 nM. On the same count and under the same terms, for `CN(C)CCn1cc(S(=O)(=O)c2cccc(C#N)c2)c2cccnc21` [Example 44] the value was 63 nM. Same read-out and setting: with `Cc1cccc(S(=O)(=O)c2cn(CCN(C)C)c3ncccc23)c1` [Example 40] the figure was 10 nM; with `Cc1ccc(S(=O)(=O)c2cn(CCN)c3ncccc23)cc1` [Example 7, 2-{3-[(4-Methylphenyl)sulfonyl]-1H-pyrrolo[2,3-b]pyridin-1-yl}ethylamine dihydrochloride], 9 nM.

Consider `NCCn1cc(S(=O)(=O)c2ccc3ccccc3c2)c2cccnc21` [Example 67], for which the Ki came out at 24 nM. Same read-out and setting: for `NCCn1cc(S(=O)(=O)c2ccccc2C(F)(F)F)c2cccnc21` [Example 21] the value was 2 nM; for `CN(C)CCn1cc(S(=O)(=O)c2c(Cl)cccc2Cl)c2cccnc21` [Example 37], 9 nM. The same measure, in the same setting: for `O=S(=O)(c1cccc(F)c1)c1cn(CCN2CCCCC2)c2ncccc12` [Example 29] the value was 158 nM; for `O=S(=O)(c1cccc(Cl)c1)c1cn(CCN2CCCC2)c2ncccc12` [Example 27], 45 nM. On the same count and under the same terms, with `CCNCCn1cc(S(=O)(=O)c2cccc(Cl)c2)c2cccnc21` [Example 60] the figure was 3 nM; with `NCCn1cc(S(=O)(=O)c2cccc(F)c2)c2cccnc21` [Example 17], 6 nM; with `Cc1c(S(=O)(=O)c2cn(CCN(C)C)c3ncccc23)sc2ccc(Cl)cc12` [Example 36], 102 nM. Take `NCCn1cc(S(=O)(=O)c2ccccc2)c2cccnc21` [Example 5, 2-[3-(Phenylsulfonyl)-1H-pyrrolo[2,3-b]pyridin-1-yl]ethylamine dihydrochloride]: the Ki came out at 6 nM.

With `CCN(CC)CCn1cc(S(=O)(=O)c2cccc(Cl)c2)c2cccnc21` [Example 35], the Ki worked out at 20 nM. Still for that read-out and setting: with `COc1ccc2c(S(=O)(=O)c3ccccc3)cn(CCN(C)C)c2n1` [Example 42] the figure was 39 nM; with `CN(C)CCn1cc(S(=O)(=O)c2cccc(Cl)c2)c2cccnc21` [Example 14], 2 nM. Take `CN(C)CCn1cc(S(=O)(=O)c2cc(Cl)cc(Cl)c2)c2cccnc21` [Example 26]: the Ki stood at 4 nM. Still for that read-out and setting: with `NCCn1cc(S(=O)(=O)c2cccc3ccccc23)c2cccnc21` [Example 16] the figure was 2 nM; with `NCCn1cc(S(=O)(=O)c2cccc(C(F)(F)F)c2)c2cccnc21` [Example 22], 2 nM; with `CNCCn1cc(S(=O)(=O)c2cccc(C)c2)c2cccnc21` [Example 62], 1 nM. Still for that read-out and setting: for `NCCn1cc(S(=O)(=O)c2cccs2)c2cccnc21` [Example 23] the value was 9 nM; for `COc1ccc2c(n1)c(S(=O)(=O)c1cccc3ccccc13)cn2CCN(C)C` [Example 80], 2 nM. The same measure, in the same setting: for `O=S(=O)(c1cccc(F)c1)c1cn(CCN2CCCC2)c2ncccc12` [Example 28] the value was 88 nM. Consider `CN(C)CCn1cc(S(=O)(=O)c2cccc(C(F)(F)F)c2)c2cccnc21` [Example 19], for which the Ki is 5 nM.

`CC(CN)n1cc(S(=O)(=O)c2ccccc2)c2cccnc21` (stereo not shown) [Example 68]: the Ki is 14 nM.

`NCCn1cc(S(=O)(=O)c2cc(Cl)cc(Cl)c2)c2cccnc21` [Example 24]: the Ki was 3 nM. Still for that read-out and setting: for `CN(C)CCn1cc(S(=O)(=O)c2c(Cl)nc3sccn23)c2cccnc21` [Example 34] the value was 2 nM; for `O=S(=O)(c1cccc(F)c1)c1cn(CCN2CCOCC2)c2ncccc12` [Example 30], 403 nM; for `CN(C)CCn1cc(S(=O)(=O)c2ccc(F)cc2)c2cccnc21` [Example 13], 50 nM. Still for that read-out and setting: for `Cc1c(S(=O)(=O)c2cccc(F)c2)c2cccnc2n1CCN` [Example 66] the value was 2 nM; for `CN(C)CCn1cc(S(=O)(=O)c2cc(Cl)ccc2Cl)c2cccnc21` [Example 38], 12 nM; for `CN(C)CCn1cc(S(=O)(=O)c2ccc(Cl)s2)c2cccnc21` [Example 33], 4 nM. Still for that read-out and setting: for `Cc1c(S(=O)(=O)c2ccccc2)c2cccnc2n1CCN` [Example 18] the value was 5 nM.

Take `CN(C)CCn1cc(S(=O)(=O)c2cccs2)c2cccnc21` [Example 25]: the Ki came out at 15 nM. On the same count and under the same terms, with `CN(C)CCn1cc(S(=O)(=O)c2ccccc2C(F)(F)F)c2cccnc21` [Example 20] the figure was 11 nM.

Still in this series, the particulars now being: read-out: 5-HT6 Binding Ki.
`NCCn1cc(S(=O)(=O)c2ccc(F)cc2)c2cccnc21` [Example 11, 2-{3-[(4-Fluorophenyl)sulfonyl]-1H-pyrrolo[2,3-b]pyridin-1yl}ethylamine hydrochloride]: the Ki worked out at 22 nM. Same read-out and setting: for `CNCCn1cc(S(=O)(=O)c2cccc(F)c2)c2cccnc21` [Example 59] the value was 1 nM. Still for that read-out and setting: with `CN(C)CCn1cc(S(=O)(=O)c2cccc3ccccc23)c2cccnc21` [Example 15] the figure was 1 nM; with `CNCCn1cc(S(=O)(=O)c2cccc(Cl)c2)c2cccnc21` [Example 57, N-(2-{3-[(3-Chlorophenyl)sulfonyl]-1H-pyrrolo[2,3-b]pyridin-1-yl}ethyl)-N-methylamine Hydrochloride], 0.3 nM. Still for that read-out and setting: with `CN(C)CCn1cc(S(=O)(=O)c2ccccc2)c2cccnc21` [Example 6, N,N-Dimethyl-N-{2-[3-(phenylsulfonyl)-1H-pyrrolo[2,3-b]pyridin-1-yl]ethyl}amine dihydrochloride] the figure was 23 nM.

Tested on in a further series: not given
Experiment: not given
Settings: not given
The melting point is the temperature, or range, at which the solid turns liquid. On to `CN(C)CCn1cc(S(=O)(=O)c2cccc3ccccc23)c2cccnc21` (as salt: hydrochloride) [Example 15], for which the melting point lay within 203 to 206 °C. In the case of `O=S(=O)(c1cccc(F)c1)c1cn(CCN2CCCCC2)c2ncccc12` (as salt: hydrochloride) [Example 29], the melting point was 197 to 199 °C. Still for that read-out and setting: for `CN(C)CCn1cc(S(=O)(=O)c2cccc(C(F)(F)F)c2)c2cccnc21` (as salt: hydrochloride) [Example 19] the value was 108 to 112 °C. The same measure, in the same setting: for `CN(C)CCn1cc(S(=O)(=O)c2cccc(C#N)c2)c2cccnc21` [Example 44] the value was 148 to 150 °C; for `Cc1cccc(S(=O)(=O)c2cn(CCN(C)C)c3ncccc23)c1` [Example 40], 195 to 197 °C; for `CN(C)CCn1cc(S(=O)(=O)c2cc(Cl)ccc2Cl)c2cccnc21` (as salt: hydrochloride) [Example 38], 230 to 232 °C. The compound `CN(C)CCn1cc(S(=O)(=O)c2c(Cl)cccc2Cl)c2cccnc21` [Example 37] returned a melting point of 220 to 222 °C. Same read-out and setting: for `CN(C)CCn1cc(S(=O)(=O)c2ccc(Cl)s2)c2cccnc21` (as salt: hydrochloride) [Example 33] the value was 169 to 171 °C; for `NCCn1cc(S(=O)(=O)c2ccc3ccccc3c2)c2cccnc21` (as salt: hydrochloride) [Example 67], 233 to 238 °C; for `NCCn1cc(S(=O)(=O)c2cccc(C(F)(F)F)c2)c2cccnc21` (as salt: hydrochloride) [Example 22], 179 to 183 °C. With `Cc1c(S(=O)(=O)c2cn(CCN(C)C)c3ncccc23)sc2ccc(Cl)cc12` [Example 36], the melting point lay in the range of 212 to 215 °C.

In turn, `CCN(CC)CCn1cc(S(=O)(=O)c2cccc(Cl)c2)c2cccnc21` [Example 35] came in with a melting point of 74 to 76 °C. Same read-out and setting: for `NCCn1cc(S(=O)(=O)c2cc(Cl)cc(Cl)c2)c2cccnc21` (as salt: hydrochloride) [Example 24] the value was 136 to 140 °C. `CNCCn1cc(S(=O)(=O)c2cccc(F)c2)c2cccnc21` [Example 59] gave a melting point of 255 to 260 °C. For `CN(C)CCn1cc(S(=O)(=O)c2ccccc2C(F)(F)F)c2cccnc21` (as salt: hydrochloride) [Example 20], the melting point lay within 196 to 198 °C. On the same count and under the same terms, for `CN(C)CCn1cc(S(=O)(=O)c2cccc(Cl)c2)c2cccnc21` (as salt: hydrochloride) [Example 14] the value was 182 to 186 °C. Same read-out and setting: with `CNCCn1cc(S(=O)(=O)c2cccc(C)c2)c2cccnc21` [Example 62] the figure was 244 to 246 °C; with `COc1ccc2c(n1)c(S(=O)(=O)c1cccc3ccccc13)cn2CCN(C)C` [Example 80], 233 to 235 °C; with `CC(CN)n1cc(S(=O)(=O)c2ccccc2)c2cccnc21` (stereo not shown) (as salt: hydrochloride) [Example 68], 180 to 185 °C. Turning to `O=S(=O)(c1cccc(F)c1)c1cn(CCN2CCOCC2)c2ncccc12` (as salt: hydrochloride) [Example 30], the melting point was 127 to 129 °C.

The compound `NCCn1cc(S(=O)(=O)c2cccc(F)c2)c2cccnc21` (as salt: hydrochloride) [Example 17] came in with a melting point of 202 to 204 °C. With `CN(C)CCn1cc(S(=O)(=O)c2c(Cl)nc3sccn23)c2cccnc21` (as salt: hydrochloride) [Example 34], the melting point lay within 180 to 182 °C.

In turn, `CN(C)CCn1cc(S(=O)(=O)c2ccc(F)cc2)c2cccnc21` (as salt: hydrochloride) [Example 13] gave a melting point of 189 to 192 °C.

In turn, `NCCn1cc(S(=O)(=O)c2cccc3ccccc23)c2cccnc21` (as salt: hydrochloride) [Example 16] came in with a melting point of 148 to 170 °C.

Compound `NCCn1cc(S(=O)(=O)c2ccccc2C(F)(F)F)c2cccnc21` (as salt: hydrochloride) [Example 21] came in with a melting point of 182 to 185 °C. On to `Cc1c(S(=O)(=O)c2cccc(F)c2)c2cccnc2n1CCN` (as salt: hydrochloride) [Example 66], for which the melting point fell in the range of 239 to 241 °C. Same read-out and setting: for `CN(C)CCn1cc(S(=O)(=O)c2cccs2)c2cccnc21` (as salt: hydrochloride) [Example 25] the value was 212 to 216 °C; for `NCCn1cc(S(=O)(=O)c2cccs2)c2cccnc21` (as salt: hydrochloride) [Example 23], 202 to 204 °C. Turning to `CN(C)CCn1cc(S(=O)(=O)c2cc(Cl)cc(Cl)c2)c2cccnc21` (as salt: hydrochloride) [Example 26], the melting point was in the range of 227 to 232 °C.
